Consider 13 molecules from US4774250A, “Composition and method for treating differentiated carcinoma or melanoma cells with thiapyrylium dyes” (Dana Farber Cancer Institute, priority 1987, dated 1988).

Experiment [1] relates to CX-1 (human colon carcinoma). Nature of the experiment: Clonogenic in vitro study, inhibition of cell colony formation, CX-1. The following applies: for S (selectivity value): comparative examples; for S (selectivity value) / Selectivity: CV-1 IC50 divided by CX-1 IC50; for IC50: Homo sapiens, Colon carcinoma cell, read-out: CX-1 (colon carcinoma cells IC50 value). The class given is cell-based. The procedure: This IC50 value is compared for both the CX-1 and CV-1. That is, the CV-1 value is divided by the value for CX-1. If the value is 10 μg/ml for CV-1, and […] for CX-1, then the dye is 10 times as effective in killing off the colon carcinoma cells, compared to the monkey epithelial cells. This is expressed as a selectivity "S" of 10. That is, in order to inhibit 50% of the normal cells, the drug requires ten times the concentration needed for inhibiting 50% of the cancer cells.

The next experiment concerns MB49 tumor cells. Description: Treatment of mouse bladder carcinoma (MB49) using thiapyrylium dyes administered IP (survival). Type of experiment: in vivo. The following applies: MB49, male BDF1 mice, 2 mg/kg IP daily for 5 days, then twice a week. The text has this:
(§1) FIGS. 1-6 are survival plots of cancer-bearing mice treated with the dyes of this invention, compared to a control group of such mice that were untreated. In these plots, "% survival" means the % of the total group (treated "T" or control "C") still surviving on the day in question. The 50% data point is selected for the T/C calculation, as being the point that is statistically meaningful.
MB49 tumor cells, that is, mouse carcinoma cells induced by the carcinogen 7,12-dimethyl benz[a]anthracene, were injected intraperitoneally into normal male BDF1 mice (2×10^6 /mouse). Each drug treated group and control group had ten mice. Except for the control group, one of the thiapyrylium dyes of Ex. 1 and Ex. 2 was administered intraperitoneally starting the following day in the following manner: 2 mg/kg daily for 5 days followed by 2 mg/kg twice a week. The control group of 10 mice was treated with 0.25 ml of 5% dextrose in water and was the same control group used for both Ex. 5-6. The survival rate was calculated as in the previous examples. The results were that the dye of Ex. 1 produced a T/C of 227%, and the dye of Ex. 2 produced a T/C of 263%, as shown further in FIGS. 5-6.

For experiment [2], the system named is CV-1 (normal monkey kidney epithelial cells). Description: Clonogenic in vitro study, inhibition of cell colony formation, CV-1. The class given is cell-based. The conditions noted are these: for IC50: Primates, Epithelial cell. The text has this:
As noted above, one of the advantages of the invention is that the thiapyryliums described herein selectively attack the cancer cells as opposed to normal cells. Although knowledge of the mechanism is not essential to the practice of the invention, it is believed this occurs through the preferential inhibition of ATP synthesis in the mitochondria of the cancer cells. Such selectivity is further shown in clonogenic in vitro studies carried out in conventional fashion. That is, cell cultures of CX-1 (human colon carcinoma) and CV-1 (normal monkey kidney epithelial cells) are prepared and treated at various concentrations, in the conventional manner, and the concentration of the dye that inhibits 50% of the cell colonies formation is denoted as IC50. This IC50 value is compared for both the CX-1 and CV-1. That is, the CV-1 value is divided by the value for CX-1. If the value is 10 μg/ml for CV-1, and […] for CX-1, then the dye is 10 times as effective in killing off the colon carcinoma cells, compared to the monkey epithelial cells. This is expressed as a selectivity "S" of 10. That is, in order to inhibit 50% of the normal cells, the drug requires ten times the concentration needed for inhibiting 50% of the cancer cells.
("Retest" in this table refers to a repeat of the clonogenic test on either an entirely different preparation of the compound, or on a different recrystallization of the same preparation. The slight variance in selectivity can be accounted for, it is speculated, by a different moisture content in the preparation or crystallization of the compounds.)

Experiment [3] relates to human melanoma cell line, LOX. Nature of the experiment: Melanoma test using nude mice protocol (LOX xenograft survival). The conditions noted are these: male nude mice, 5 mg/kg IP daily for five days, then three times per week. Type of experiment: in vivo, human melanoma cells in athymic Swiss nu/nu mice.
Description: as §1
(§2) Effectiveness against human cancer can be inferred by tests in the nude mouse-human xenograft model, hereinafter "nude mice protocol". […] 899-903, especially p. 889 (April 1985).
(§3) Nude mice, that is, those deficient in thymic functions, bred and maintained in pathogen-free conditions [See J. Natl. Cancer Inst. 51: 615-619 (1973)] were used in in vivo experiments. For each experiment, nude mice from the same litter and of the same sex which were over 3 months old and weighed at least 25 g were injected or implanted with cancer cells.
A human melanoma cell line, LOX, was used that grows rapidly when inoculated into the peritoneal cavity of athymic mice. […] Cells were then scored for viability with trypan blue and 5 million viable cells made up in 0.1 ml of Dulbecco modified Eagles' medium (DME) were injected intraperitoneally into a group of male athymic Swiss nu/nu mice. […]
Background: In xenograft studies the graft and the host belong to different species.

Experiment [4] deals with human ovarian carcinoma line OVCAR-3. Nature of the experiment: Ovarian carcinoma (OVCAR-3) using nude mice protocol (survival). Type of experiment: in vivo, human ovarian carcinoma cells in nude mice. The following applies: OVCAR-3, female nude mice, 5 mg/kg IP daily for five days, then twice weekly.
Description: as §1, §2, §3
Ex. 1 and 2 were repeated, except they were administered to female nude mice xenografted with human ovarian carcinoma line OVCAR-3. Ten mice were selected for treatment with the thiapyrylium, in an amount of 5 mg/kg administered IP 1 day after the cancer cells were injected. This was repeated as follows: daily for five days followed by twice weekly (usually on Tuesday and Thursday). Ten mice were used as the control group and were injected with 0.25 ml of 5% dextrose in water.

A further experiment deals with stomach cancer. The conditions noted are these: stomach cancer in Japan, Antibiotics Chemother., Vol. 24, pages 149-159 (1978); cited from earlier work.
Setting [5] is: clonogenic, CV-1 normal monkey kidney epithelial cells.
Setting [6] is: clonogenic, CX-1 human colon carcinoma.
The mark [7] stands for this setting: retest: different preparation or recrystallization, CX-1.
Setting [8] is: retest: different preparation or recrystallization, CV-1.

Like-named read-outs stand apart in the source and are kept apart here.

Take `CN(C)c1ccc(-c2cc(-c3ccccc3)[s+]c(-c3ccccc3)c2)cc1` [compound 2, reference compound]: the “S (selectivity value)” value in experiment [1] was 5.0.
Usually T/C stands for the ratio of treated to control. One may read the IC50 as the concentration that inhibits the measured activity by half. In the case of `CN(C)c1ccc(-c2cc(-c3ccccc3)[s+]c(-c3ccccn3)c2)cc1` [T-2, 4-(4-dimethylaminophenyl)-2-phenyl-6-(2-pyridyl)thiapyrylium chloride], the T/C amounted to 227% in the experiment with MB49 tumor cells and 340% in experiment [4]. Further, the IC50 in experiment [2] (setting [5]) was determined as 3 µg/mL; in experiment [1] (setting [6]), 0.018 µg/mL. Moreover, in experiment [3], the “T/C (test drug versus control, calculated based on 50% survival day)” value is 228%. Besides, the Selectivity in experiment [1] is reported as 167; in experiment [1] (retest), 60. Besides, the “CX-1 (colon carcinoma cells IC50 value)” value in experiment [1] (setting [7]) was determined as 0.005 µg/mL.
Take `CN(C)c1ccc(-c2cc(-c3ccccn3)[s+]c(-c3cccs3)c2)cc1` [T-1, 4-(4-dimethylaminophenyl)-2-(2-pyridyl)-6-(2-thienyl)thiapyrylium chloride]: the results for the T/C (in the experiment with MB49 tumor cells; in experiment [4]) were 263% and 321%, respectively. Besides, the “CV-1 (normal cells IC50 value)” value in experiment [2] (setting [5]) was 2.0 µg/mL. In experiment [3], the “T/C (test drug versus control, calculated based on 50% survival day)” value is given as 200%. The Selectivity in experiment [1] is recorded as 200. Further, in experiment [1] (setting [6]), the IC50 was found to be 0.01 µg/mL.
In the case of `CN(C)c1ccc(-c2cc(-c3ccncc3)[s+]c(-c3cccs3)c2)cc1` [compound 4, 4-(4-Dimethylaminophenyl)-2-(4-pyridyl)-6-(2-thienyl)thiapyrylium perchlorate, reference compound], in experiment [1], the “S (selectivity value)” value was found to be 3.3.
Same read-out and setting: the figure for `CN(C)c1ccc(-c2cc(-c3ccccc3)[s+]c(-c3ccc(N(C)C)cc3)c2)cc1` [compound 6, reference compound] is 10.0.
Take `COc1cccc2c1C(=O)c1c(O)c3c(c(O)c1C2=O)C[C@@](O)(C(=O)CO)C[C@@H]3O[C@H]1C[C@H](N)[C@H](O)[C@H](C)O1` [Adriamycin]: in the experiment with stomach cancer, the effective response rate is 14.5%.
With `CN(C)c1ccc(-c2cc(-c3ccccc3)[s+]c(-c3ccccn3)c2)cc1` [T-3, 4-(4-dimethylaminophenyl)-2-phenyl-6-(2-pyridyl)thiapyrylium perchlorate], the “CV-1 (normal cells IC50 value)” value in experiment [2] (setting [5]) and in experiment [2] (setting [8]) was 2.5 µg/mL throughout. The Selectivity was 167 in experiment [1] and 100 in experiment [1] (retest). For the same molecule, the “CX-1 (colon carcinoma cells IC50 value)” value came out at 0.015 µg/mL in experiment [1] (setting [6]) and 0.025 µg/mL in experiment [1] (setting [7]).
Turning to `ClCCN(CCCl)c1ccc(-c2cc(-c3ccccc3)[s+]c(-c3ccccc3)c2)cc1` [compound 9, reference compound], the “S (selectivity value)” value in experiment [1] was less than 5.0.
Same read-out and setting: the figure for `CN(C)c1ccc(-c2cc(-c3cccs3)[s+]c(-c3cccs3)c2)cc1` [compound 3, 2,6-Bis(2-thienyl)-4-(4-dimethylaminophenyl)thiapyrylium perchlorate, reference compound] is 1.0.
For the molecule `CN(C)c1ccc(-c2cc(-c3ccccn3)[s+]c(-c3cccs3)c2)cc1` [T-4, 4-(4-dimethylaminophenyl)-2-(2-pyridyl)-6-(2-thienyl)thiapyrylium perchlorate], the results for the IC50 in experiment [2] (setting [8]) and in experiment [1] (setting [7]) were 1.5 µg/mL and 0.015 µg/mL, respectively. In addition, the “CV-1 (normal cells IC50 value)” value in experiment [2] (setting [5]) came out at 5.0 µg/mL. Further, the Selectivity worked out at 333 in experiment [1] and 100 in experiment [1] (retest).
Take `c1ccc(CN(Cc2ccccc2)c2ccc(-c3cc(-c4ccccc4)[s+]c(-c4ccccc4)c3)cc2)cc1` [compound 8, reference compound]: in experiment [1], the “S (selectivity value)” value was less than 7.5.
On the same count and under the same terms, under `CN(C)c1ccc(-c2cc(-c3ccco3)[s+]c(-c3cccs3)c2)cc1` [compound 5, 4-(4-Dimethylaminophenyl)-2-(2-furyl)-6-(2-thienyl)thiapyrylium perchlorate, reference compound] stands 13.5.
The same measure, in the same setting: under `Cc1cc(N(CCCl)CCCl)ccc1-c1cc(-c2ccccc2)[s+]c(-c2ccccc2)c1` [compound 7, reference compound] stands less than 7.5.
